# Source: US5786324A, “Synthetic peptides with bactericidal activity and endotoxin neutralizing activity for gram negative bacteria and methods for their use” (priority 1994, dated 1998)
# Like-named read-outs stand apart in the source and are kept apart here. No end group written: not given here.
# How the values were obtained:
# [1] = tested on: Staphylococcus aureus 502A; type: cell-based
# Method: (§1) The synthetically produced peptides were assayed for bactericidal activity against Pseudomonas aeruginosa, type 1, P. cepacia ATCC 25608, E. coli B, and Staphylococcus aureus 502A by standard methods.
# (§2) Pseudomonas aeruginosa type 1 is a clinical isolate maintained in the laboratory since 1972. The isolate remains a smooth strain and was serotyped by the scheme of Homma. Homma, Jpn. J. Exp. Med., 46:329 (1976). A rough strain E. coli B and S. aureus 502A were obtained from Paul Quie, University of Minnesota. The characteristics of the S. aureus strain have been described in Shinefield et al., Amer. J. Dis. Chil., 105:646 (1963). Pseudomonas cepacia ATCC 25608 was purchased from the American Type Culture Collection in 1980. S. aureus and E. coli were maintained on nutrient agar plates and the Pseudomonas strains were maintained on blood agar plates.
# (§3) Pyrogen-free solutions were used throughout this assay and all methods which follow. Log phase bacteria were prepared from a culture in brain heart infusion broth as previously described except that bacteria were washed and resuspended in saline with adjustment to an optical density at 650 nm which would yield 3×10^8 CFU/ml. Bacteria were then diluted 1:10 in 0.08M citrate phosphate buffer, pH 5.6 or pH 7.0, for use in the assay. S. aureus rapidly lost viability in the pH 5.6 buffer and was studied only at pH 7.0. Bactericidal activity was determined by dose response and where an LD50 is indicated, it was determined by linear regression.
# P. cepacia ATCC 25608 = test: Bactericidal assay, P. cepacia; type: cell-based, Pseudomonas cepacia; details: P. cepacia
# Method: as §1, §2, §3
# [2] = tested on: Pseudomonas aeruginosa type 1; type: cell-based; details: for Effective Dose Bactericidal pH 5.6 P. aeruginosa Molar Concentration: Table 5
# Method: Bactericidal activity can be evaluated against a variety of bacteria such as Pseudomonas spp including aeruginosa and P. cepacia, E. coli B, and Staphylococcus aureus. The preferred organism is P. aeruginosa. Bactericidal activity is determined by identifying the effective dose for killing as the molar concentration of the peptide which results in at least a 60% killing of the bacteria, as determined by standard methods. Preferably, the peptide has an effective dose at a concentration of about 1×10^-4 M to about 1×10^-10 M, and more preferably 1×10^-7 M to 1×10^-9M . […] The effective dose for bactericidal activity of B/PI is seen at about […] . Bactericidal activity can also be determined by calculating a lethal dose 50 (LD50) using standard methods. The LD50 is that amount of peptide or protein that kills 50% of the bacteria when measured using standard dose response methods. A bactericidal peptide preferably has an LD50 of about 10^-4 M to about 10^-9 M , more preferably about 10^-7 to 10^-9 M .
# as §1, §2, §3
# E. coli B = test: Bactericidal assay, E. coli B; type: cell-based
# Method: as §1, §2, §3
# E. coli 055: B5 LPS = test: Limulus amoebocyte lysate assay, neutralization of endotoxin; type: biochemical; details: for Effective Dose Endotoxin Neutralization (Molar Concentration): Table 8, LAL
# Text: The peptide selected can also have endotoxin neutralizing activity. […] Endotoxin neutralizing activity can also be measured by calculating an inhibitory dose 50 […] using standard does response methods. An inhibitory dose 50 is that amount of peptide that can inhibit 50% of the activity of endotoxin. Endotoxin activity can also be measured by determining the amount of release of tumor necrosis factor alpha (TNFα) from a macrophage cell line or by evaluating the symptoms of shock in animals. Peptides preferably neutralized endotoxin at a molar concentration of about 1×10^-4 M to about 10^-8 M , more preferably about 10^-5 M to about 10^-6 M .
# The ability of synthetic peptides to neutralize endotoxin was detected with the E-TOXATE kit manufactured by Sigma Chemicals, St. Louis, Mo. […] Peptide was incubated with LPS at room temperature for 10 minutes in 100 μl of a 1:2 dilution of pyrogen-free saline, pH 6.4. The reaction was started by addition of 100 μl of amoebocyte lysate and the final volume was 200 μl.
# ^a The dose of peptide required to inhibit clotting of LAL by 100%.
# Each tube contained 0.04 endotoxin units of E. coli LPS.
# Human lung fibroblasts = test: Toxicity for human lung fibroblasts, trypan blue exclusion; type: cell-based; details: 30 minutes; for Percent Viability DMEM: DMEM plus 10% FCS; for Percent Viability PBS: pH 7.4
# Method: The synthetic peptides were assayed for toxicity to cultured eukaryotic cells. Human lung fibroblasts were grown in monolayers in Dulbecco's Modified Eagles' Medium (DMEM) with 10% fetal calf serum (FCS) and originated as primary cultures of lung mesenchymal cells. The cells were trypsinized, washed with either DMEM plus FCS or phosphate-buffered saline (PBS), pH 7.4, and incubated with peptide at a final cell concentration of 1×10^7 /ml. Nine volumes of cell suspension were diluted with one volume of 0.4% trypan blue and the cells were counted with a hemocytometer, while also determining the fraction of cells which were increased in permeability to dye. There was no significant loss of cell number due to exposure of the fibroblasts to peptide.
# ^a Viability was determined by trypan blue exclusion following
# incubation of cells with peptide for 30 minutes in DMEM plus 10% FCS or i
# [3] = P. aeruginosa, pH 5.6, 1.2 × 10^-4 M
# [4] = Table 7, dose required to inhibit clotting of LAL by 100%, 0.04 endotoxin units of E. coli LPS
# [5] = P. aeruginosa, pH 5.6, 1.5 × 10^-5 M
compound,measurement,setting,value
cefysenhhnp(g) [Peptide 3],% Killing of 5 × 10^6 Bacteria,"[1]; S. aureus, pH 7.0, 1.2 × 10^-4 M",0%
same,% Killing of 5 × 10^6 Bacteria,"P. cepacia ATCC 25608; pH 5.6, 1.2 × 10^-4 M",0%
same,% Killing of 5 × 10^6 Bacteria,"P. cepacia ATCC 25608; pH 7.0, 1.2 × 10^-4 M",0%
same,% Killing of 5 × 10^6 Bacteria,[2]; [3],0%
same,% Killing of 5 × 10^6 Bacteria,"[2]; P. aeruginosa, pH 7.0, 1.2 × 10^-4 M",0%
same,Effective Dose Bactericidal pH 5.6 P. aeruginosa Molar Concentration,[2]; pH 5.6,-- (not active at concentrations of 1.2 × 10^-4 M or less)
same,% Killing of 5 × 10^6 Bacteria,"E. coli B; E. coli, pH 5.6, 1.2 × 10^-4 M",0%
same,% Killing of 5 × 10^6 Bacteria,"E. coli B; E. coli, pH 7.0, 1.2 × 10^-4 M",0%
same,peptide concentration which neutralized endotoxin (100% inhibition of LPS-induced gelation),E. coli 055: B5 LPS; 0.04 endotoxin units of E. coli 055: B5 LPS,120 µM
same,Effective Dose (μg/0.2 ml),E. coli 055: B5 LPS; [4],34 μg/0.2 ml
same,Effective Dose M (× 10^-4),E. coli 055: B5 LPS; [4],1.2 M (× 10^-4)
same,Effective Dose Endotoxin Neutralization (Molar Concentration),E. coli 055: B5 LPS,120 µM
"CC(C)C[C@H](NC(=O)[C@H](Cc1ccccc1)NC(=O)[C@H](CCCNC(=N)N)NC(=O)[C@H](CCCCN)NC(=O)[C@H](CCC(N)=O)NC(=O)[C@H](C)NC(=O)[C@H](CCCCN)NC(=O)[C@H](Cc1c[nH]c2ccccc12)NC(=O)[C@@H](N)CCCCN)C(=O)N[C@@H](CCCCN)C(=O)O [Peptide 5, kwkaqkrflk]",% Killing of 5 × 10^6 Bacteria,"[2]; type 1, 1.5e-5 M, pH 5.6",75%
same,LD50 for P. aeruginosa,"[2]; type 1, pH 5.6",8.2 µM
same,% Killing of 5 × 10^6 Bacteria,"E. coli B; E. coli B, pH 5.6, 3.0 × 10^-5 M, listed as #90-99",31%
same,Percent Viability DMEM,Human lung fibroblasts; 1.5 × 10^-4 M,98.0%
same,Percent Viability PBS,Human lung fibroblasts; 1.5 × 10^-4 M,89.4%
"CC(C)C[C@H](NC(=O)[C@H](Cc1ccccc1)NC(=O)[C@H](CCCNC(=N)N)NC(=O)[C@H](CCCCN)NC(=O)[C@H](CCC(N)=O)NC(=O)[C@H](C)NC(=O)[C@H](CCCCN)NC(=O)[C@H](Cc1c[nH]c2ccccc12)NC(=O)[C@H](CCCCN)NC(=O)[C@@H](N)CS)C(=O)N[C@@H](CCCCN)C(=O)O [Peptide 2, ckwkaqkrflk]",% Killing of 5 × 10^6 Bacteria,"[1]; 502A, 3e-5 M, pH 7",95%
same,% Killing of 5 × 10^6 Bacteria,"P. cepacia ATCC 25608; pH 5.6, 1.5 × 10^-5 M",80%
same,% Killing of 5 × 10^6 Bacteria,"P. cepacia ATCC 25608; pH 7.0, 1.5 × 10^-5 M",78%
same,% Killing of 5 × 10^6 Bacteria,"[2]; type 1, 1.5e-6 M, pH 5.6",83%
same,% Killing of 5 × 10^6 Bacteria,"E. coli B; E. coli B, pH 5.6, 1.5 × 10^-5 M, listed as C#90-99",98%
same,% Killing of 5 × 10^6 Bacteria,"E. coli B; E. coli, pH 7.0, 1.5 × 10^-5 M",90%
same,Percent Viability DMEM,Human lung fibroblasts; 1.5 × 10^-5 M,98.4%
same,Percent Viability PBS,Human lung fibroblasts; 1.5 × 10^-5 M,94.7%
"EFYSENHHNPKWKAQKRFLK [Peptide 18, efysenhhnpkwkaqkrflk]",% Killing of 5 × 10^6 Bacteria,"[2]; type 1, 3.0e-5 M, pH 5.6",79%
same,Percent Viability DMEM,Human lung fibroblasts; 1.5 × 10^-4 M,98.8%
same,Percent Viability PBS,Human lung fibroblasts; 1.5 × 10^-4 M,95.6%
"CEFYSENHHNPKWKAQKRFLK [Peptide 17, cefysenhhnpkwkaqkrflk]",% Killing of 5 × 10^6 Bacteria,"[2]; type 1, 3.0e-6 M, pH 5.6",74%
same,% Killing of 5 × 10^6 Bacteria,"E. coli B; E. coli B, pH 5.6, 3.0 × 10^-5 M",71%
same,Percent Viability DMEM,Human lung fibroblasts; 1.5 × 10^-5 M,99.2%
same,Percent Viability PBS,Human lung fibroblasts; 1.5 × 10^-5 M,92.3%
"iktkkflkkt [Peptide 24, reference compound]",% Killing of 5 × 10^6 Bacteria,"[2]; P. aeruginosa, pH 5.6, 3.0 × 10^-5 M",72%
same,Effective Dose Bactericidal pH 5.6 P. aeruginosa Molar Concentration,[2]; pH 5.6,3.0 × 10^-5 M
same,Effective Dose Endotoxin Neutralization (Molar Concentration),E. coli 055: B5 LPS,-- (not active at concentrations of 4.5 × 10^-4 M or less)
cnanikisgkwkaqkrflkmsgnfdlsic [Peptide 23],% Killing of 5 × 10^6 Bacteria,"[2]; P. aeruginosa, pH 5.6, 3 × 10^-7 M",67%
same,Effective Dose Bactericidal pH 5.6 P. aeruginosa Molar Concentration,[2]; pH 5.6,3 × 10^-7 M
same,Effective Dose Endotoxin Neutralization (Molar Concentration),E. coli 055: B5 LPS,30 µM
kwkaqkrflkc [Peptide 20b],% Killing of 5 × 10^6 Bacteria,"[2]; P. aeruginosa, pH 5.6, 3.0 × 10^-6 M",75%
same,Effective Dose Bactericidal pH 5.6 P. aeruginosa Molar Concentration,[2]; pH 5.6,3.0 × 10^-6 M
same,Effective Dose Endotoxin Neutralization (Molar Concentration),E. coli 055: B5 LPS,-- (not active at concentrations of 4.5 × 10^-4 M or less)
sdsflkikhlgkghysfysmdirefq [Peptide 12],% Killing of 5 × 10^6 Bacteria,[2]; [5],58%
same,Effective Dose Bactericidal pH 5.6 P. aeruginosa Molar Concentration,[2]; pH 5.6,1.5 × 10^-5 M
same,Effective Dose Endotoxin Neutralization (Molar Concentration),E. coli 055: B5 LPS,75 µM
wkkfkqralk [Peptide 19],% Killing of 5 × 10^6 Bacteria,[2]; [3],65%
same,Effective Dose Bactericidal pH 5.6 P. aeruginosa Molar Concentration,[2]; pH 5.6,1.2 × 10^-4 M
same,"bactericidal activity, fold reduced versus the 90-99 peptide","[2]; pH 5.6, randomized sequence",8 fold
same,Effective Dose Endotoxin Neutralization (Molar Concentration),E. coli 055: B5 LPS,-- (not active at concentrations of 4.5 × 10^-4 M or less)
kkkwfrlakq [Peptide 21],% Killing of 5 × 10^6 Bacteria,[2]; [5],71%
same,Effective Dose Bactericidal pH 5.6 P. aeruginosa Molar Concentration,[2]; pH 5.6,1.5 × 10^-5 M
same,bacterial killing activity compared with parent peptide (in words),"[2]; pH 5.6, P. aeruginosa",retained biological activity
same,Effective Dose Endotoxin Neutralization (Molar Concentration),E. coli 055: B5 LPS,-- (not active at concentrations of 4.5 × 10^-4 M or less)
isnanikisg [Peptide 30],Effective Dose Bactericidal pH 5.6 P. aeruginosa Molar Concentration,[2]; pH 5.6,-- (not active at concentrations of 1.2 × 10^-4 M or less)
same,Effective Dose Endotoxin Neutralization (Molar Concentration),E. coli 055: B5 LPS,450 µM
ckisgkwkaqkrflkmsgnfc [Peptide 36],% Killing of 5 × 10^6 Bacteria,[2]; [3],39%
same,Effective Dose Bactericidal pH 5.6 P. aeruginosa Molar Concentration,[2]; pH 5.6,1.2 × 10^-4 M
same,Effective Dose Endotoxin Neutralization (Molar Concentration),E. coli 055: B5 LPS,750 µM
